From patent publication US20240409534A1, “CRYSTAL FORM OF METHYLPYRAZOLE-SUBSTITUTED PYRIDOIMIDAZOLE COMPOUND AND PREPARATION METHOD THEREFOR” (priority 2021, published 2024)

Assay: Pharmacokinetic study in rats at 100 mpk (Experimental Embodiment 4)
Format: in vivo
Details: male SD rats; for AUC(0-inf) / AUC(0-t) / Cmax / Tmax / half-life: Sprague-Dawley, rat, plasma, po, 100 mg/kg
Description: SD rats (overnight fasting, 7 to 11 weeks old)
The compound of the present disclosure or its crystal form of 5% DMSO/10% Kolliphor HS15/85% (0.2% (v/v) Tween80 aqueous solution) at 10 mg/mL was administered by gavage to male SD rats (overnight fasting, 7 to 11 weeks old) at a dose of 100 mg/kg. At 0.25, 0.5, 1.0, 2.0, 4.0, 8.0 and 24 h after administration, approximately 0.2 mL of blood was collected from the jugular vein of the animals in all three groups, placed in an anticoagulant tube added with EDTA-K2, and centrifuged for the separation of plasma. Plasma concentrations were determined by LC-MS/MS method, and relevant pharmacokinetic parameters were calculated using WinNonlin™ Version 6.3 (Pharsight, Mountain View, CA) pharmacokinetic software with non-compartmental model linear-log trapezoidal method.

Cl.Cn1cc(-c2ccn3c(-c4cc(NS(C)(=O)=O)nc(-c5ccc(F)cc5F)c4)cnc3c2)cn1
AUC(0-inf): 32.3 µM·h
AUC(0-t): 32.3 µM·h
Cmax: 8.78 µM
Tmax: 0.5 h
half-life: 2.57 h
Tlast: 24.0 h

Cn1cc(-c2ccn3c(-c4cc(NS(C)(=O)=O)nc(-c5ccc(F)cc5F)c4)cnc3c2)cn1 [Compound represented by formula (I)]
AUC(0-inf): 12.6 µM·h
AUC(0-t): 12.6 µM·h
Cmax: 3.75 µM
Tmax: 0.5 h
half-life: 2.25 h
Tlast: 24.0 h

CS(=O)(=O)O.Cn1cc(-c2ccn3c(-c4cc(NS(C)(=O)=O)nc(-c5ccc(F)cc5F)c4)cnc3c2)cn1
AUC(0-inf): 179 µM·h
AUC(0-t): 179 µM·h
Cmax: 22.1 µM
Tmax: 2.5 h
half-life: 1.85 h
Tlast: 24.0 h
